The test system of the experiment is GAS. Put plainly: Bacterial translocation through polarized keratinocyte cultures (Transwell). To be noted: two hours after addition of GAS. It counts as cell-based, Group A Streptococcus. The procedure: Cell cultures: For the preparation of in vitro keratinocyte cultures, human primary OKP7 cells were derived from the oropharynx. Keratinocytes were seeded at 5×10^5 cells per well onto polycarbonate Transwell membrane supports (12 well plates, 3.0 μm pore size; Costar) or tissue culture treated plastic ware and cultured for 5-10 days at 37° C. with 5% humidified CO2 in cSFM medium with daily medium changes. Once confluent, the calcium concentration of the cSFM was increased to 1.2 mM and cells were cultured for 2 more days, before the integrity of the monolayer was assessed by measuring permeability to sodium fluorescein, and in some experiments, by measuring transepithelial electrical resistance.
Infection procedures: Keratinocyte layer cultures in Transwell inserts were inoculated in the upper chamber with GAS, S. equi, S. uberis, and P. multocida at a multiplicity of infection (MOI) of 1 bacterium per keratinocyte in the presence or absence of HABP01 or SCRM. Infected cultures were incubated at 37° C. with 5% CO2 for the desired time. In translocation experiments, Transwell inserts containing the keratinocytes were moved to new wells containing fresh medium every 2 hours to prevent overgrowth of bacteria that had translocated through the keratinocytes layer to the lower chamber. Bacterial translocation was quantified by culturing medium from the lower chamber at 2-hour intervals.
Bacterial translocation studies were performed to assess the impact of HABP01 on bacterial paracellular translocation through polarized keratinocyte cultures.
Incubation of GAS in the presence of HABP33, HABP35 and HABP42, also delayed GAS translocation. At two hours after the addition of GAS to the keratinocytes, approximately 530 CFU of GAS were detected in the lower level in cultures treated with PBS or SCRM peptide.

With “HKSVSRHTSMRHSTM [SCRM, reference compound]”, the “GAS detected in the lower level” value is “approximately 530 CFU”.
